According to patent publication US7384933B2, “Derivatives of 2-hydroxytetrahydrofuran and their use as medicaments” (priority 2003, dated 2008):

SMILES	melting point [°C]
CC[C@H](NC(=O)COc1ccc2c(c1)Nc1ccccc1S2)C(=O)N(C(=O)[C@@H](N)CC(C)C)[C@H]1CCOC1O (stereo partly drawn) [Example 48, N^1-[(3S)-2-hydroxytetrahydrofuran-3-yl]-N^1-((2S)-2-{[(10H-phenothiazin-2-yloxy)acetyl]amino}butanoyl)-L-leucinamide]	160 to 161
COC1OCC[C@@H]1NC(=O)[C@H](CC(C)C)NC(=O)[C@@H]1CCCN1C(=O)c1ccc2c(c1)Nc1ccccc1S2 (some centres unmarked)	243 to 243.5
COC1OCC[C@@H]1NC(=O)[C@H](CC(C)C)NC(=O)[C@H](C)NC(=O)COc1ccc2c(c1)Nc1ccccc1S2 (some centres unmarked)	195 to 196
CC(C)C[C@H](NC(=O)c1ccc2c(c1)Nc1ccccc1S2)C(=O)N[C@@H](CC(C)C)C(=O)N[C@H]1CCOC1O (stereo partly drawn) [Example 8, N-(10H-phenothiazin-2-ylcarbonyl)leucyl-N^1-[(3S)-2-hydroxytetrahydrofuran-3-yl]-L-leucinamide]	144 to 144.5
CC(C)C[C@H](NC(=O)CNC(=O)COc1ccc2c(c1)Nc1ccccc1S2)C(=O)N[C@H]1CCOC1O (stereo partly drawn) [Example 41, N-[(10H-phenothiazin-2-yloxy)acetyl]-glycyl-N^1-[(3S)-2-hydroxytetrahydrofuran-3-yl]-L-leucinamide]	184 to 186
CC(C)CN(CC(=O)N[C@H]1CCOC1O)C(=O)CNC(=O)COc1ccc2c(c1)Nc1ccccc1S2 (some centres unmarked)	122 to 124
COC1OCC[C@@H]1NC(=O)[C@H](CC(C)C)NC(=O)CNC(=O)COc1ccc2c(c1)Nc1ccccc1S2 (some centres unmarked)	181 to 182
CC(C)C[C@H](NC(=O)[C@@H](NC(=O)COc1ccc2c(c1)Nc1ccccc1S2)C(C)C)C(=O)N[C@H]1CCOC1O (stereo partly drawn) [Example 43, N-[(10H-phenothiazin-2-yloxy)acetyl]-L-valyl-N^1-[(3S)-2-hydroxytetrahydrofuran-3-yl]-L-leucinamide]	205 to 206
CC(C)C[C@H](NC(=O)CN(C)C(=O)COc1ccc2c(c1)Nc1ccccc1S2)C(=O)N[C@H]1CCOC1O (stereo partly drawn) [Example 45, N-methyl-N-[(10H-phenothiazin-2-yloxy)acetyl]glycyl-N^1-[(3S)-2-hydroxytetrahydrofuran-3-yl]-L-leucinamide]	137 to 138
CCC[C@H](NC(=O)COc1ccc2c(c1)Nc1ccccc1S2)C(=O)N[C@@H](CC(C)C)C(=O)N[C@H]1CCOC1O (stereo partly drawn) [Example 49, N-[(10H-phenothiazin-2-yloxy)acetyl]-L-norvalyl-N^1-[(3S)-2-hydroxytetrahydrofuran-3-yl]-L-leucinamide]	195 to 196
CC[C@H](NC(=O)COc1ccc2c(c1)Nc1ccccc1S2)C(=O)N[C@@H](CC(C)C)C(=O)N[C@H]1CCOC1OC (some centres unmarked)	164 to 165
CC(C)C[C@H](NC(=O)CCNC(=O)COc1ccc2c(c1)Nc1ccccc1S2)C(=O)N[C@H]1CCOC1O (stereo partly drawn) [Example 44, N-[(10H-phenothiazin-2-yloxy)acetyl]-β-alanyl-N^1-[(3S)-2-hydroxytetrahydrofuran-3-yl]-L-leucinamide]	161 to 162
CC(C)C[C@H](NC(=O)[C@@H](NC(=O)COc1ccc2c(c1)Nc1ccccc1S2)C(C)(C)C)C(=O)N[C@H]1CCOC1O (stereo partly drawn) [Example 47, 3-methyl-N-[(10H-phenothiazin-2-yloxy)acetyl]-L-valyl-N^1-[(3S)-2-hydroxytetrahydrofuran-3-yl]-L-leucinamide]	157 to 159
CC(C)C[C@H](NC(=O)[C@@H](NC(=O)COc1ccc2c(c1)Nc1ccccc1S2)[C@@H](C)O)C(=O)N[C@H]1CCOC1O (stereo partly drawn) [Example 51, N-[(10H-phenothiazin-2-yloxy)acetyl]-L-threonyl-N^1-[(3S)-2-hydroxytetrahydrofuran-3-yl]-L-leucinamide]	195 to 196
NC(=O)[C@H](Cc1ccccc1)N(C(=O)CNC(=O)COc1ccc2c(c1)Nc1ccccc1S2)[C@H]1CCOC1O (stereo partly drawn) [Example 57, N-[(10H-phenothiazin-2-yloxy)acetyl]glycyl-N^1-[(3S)-2-hydroxytetrahydrofuran-3-yl]-L-phenylalaninamide]	207 to 208
COC1OCC[C@@H]1NC(=O)[C@H](CC(C)C)NC(=O)[C@@H](NC(=O)COc1ccc2c(c1)Nc1ccccc1S2)C(C)(C)C (some centres unmarked)	152 to 153
C=CC(NC(=O)COc1ccc2c(c1)Nc1ccccc1S2)C(=O)NC(CC(C)C)C(=O)NC1CCOC1O [Example 53, N^1-[(3S)-2-hydroxytetrahydrofuran-3-yl]-N^2-((2S)-2-{[(10H-phenothiazin-2-yloxy)-acetyl]amino}goal-3-enoyl)-L-leucinamide]	159 to 161
CC(C)C[C@H](NC(=O)Cc1ccc2c(c1)Nc1ccccc1S2)C(=O)N[C@@H](CC(C)C)C(=O)N[C@H]1CCOC1O (stereo partly drawn) [Example 16, N-(10H-phenothiazin-2-ylacetyl)-L-leucyl-N^1-[(3S)-2-hydroxytetrahydrofuran-3-yl]-L-leucinamide]	168 to 168.5
COC1OCC[C@@H]1NC(=O)[C@H](CC(C)C)NC(=O)CN(C)C(=O)COc1ccc2c(c1)Nc1ccccc1S2 (some centres unmarked)	92 to 95
CC(C)C[C@H](NC(=O)[C@@H](NC(=O)COc1ccc2c(c1)Nc1ccccc1S2)c1ccccc1)C(=O)N[C@H]1CCOC1O (stereo partly drawn) [Example 52, N^1-[(3S)-2-hydroxytetrahydrofuran-3-yl]-N^2-((2S)-2-{[(10H-phenothiazin-2-yloxy)acetyl]amino}-2-phenylethanoyl)-L-leucinamide]	137 to 138
CC(C)C[C@H](NC(=O)[C@H](COC(C)(C)C)NC(=O)Cc1ccc2c(c1)Nc1ccccc1S2)C(=O)N[C@H]1CCOC1O (stereo partly drawn) [Example 17, O-(tert-butyl)-N-(10H-phenothiazin-2-ylacetyl)-L-seryl-N^1-[(3S)-2-hydroxytetrahydrofuran-3-yl]-L-leucinamide]	135 to 136
CC(C)[C@H](NC(=O)CNC(=O)COc1ccc2c(c1)Nc1ccccc1S2)C(=O)N[C@H]1CCOC1O (stereo partly drawn) [Example 55, N-[(10H-phenothiazin-2-yloxy)acetyl]glycyl-N^1-[(3S)-2-hydroxytetrahydrofuran-3-yl]-L-valinamide]	200 to 201
CC(C)C[C@H](NC(=O)[C@H](CO)NC(=O)COc1ccc2c(c1)Nc1ccccc1S2)C(=O)N[C@H]1CCOC1O (stereo partly drawn) [Example 50, N-[(10H-phenothiazin-2-yloxy)acetyl]-L-seryl-N^1-[(3S)-2-hydroxytetrahydrofuran-3-yl]-L-leucinamide]	128 to 130
COC1OCC[C@@H]1N(C(=O)[C@@H](NC(=O)COc1ccc2c(c1)Nc1ccccc1S2)c1ccccc1)C(=O)[C@@H](N)CC(C)C (some centres unmarked)	215 to 217
CC(C)C[C@H](NC(=O)[C@@H]1CCCN1C(=O)c1ccc2c(c1)Nc1ccccc1S2)C(=O)N[C@H]1CCOC1O (stereo partly drawn) [Example 10, 1-(10H-phenothiazin-2-ylcarbonyl)-L-prolyl-N^1-[(3S)-2-hydroxytetrahydrofuran-3-yl]-L-leucinamide]	144.5 to 145
CC(C)C[C@H](NC(=O)[C@H](NC(=O)COc1ccc2c(c1)Nc1ccccc1S2)C(C)C)C(=O)N[C@H]1CCOC1O (stereo partly drawn) [Example 46, N-[(10H-phenothiazin-2-yloxy)acetyl]-D-valyl-N^1-[(3S)-2-hydroxytetrahydrofuran-3-yl]-L-leucinamide]	145 to 146
